The record followed here is publication PMC5979531, “Structural Requirements of Alkylglyceryl-L-Ascorbic Acid Derivatives for Melanogenesis Inhibitory Activity” (International Journal of Molecular Sciences, 2018).

The test system of one data set is TRP-2 mRNA. Description: Expression of TRP-2 mRNA (qRT-PCR). The format is cell-based, murine. Particulars: B16 4A5 cells, theophylline 1 mM, 72 h. On the procedure: (§1) The expression of tyrosinase, TRP-1, and TRP-2 mRNA was assessed according to previously reported methods. Briefly, murine B16 melanoma 4A5 cells were seeded into 96-well plates in DMEM. After 24 h of culture, a test compound and theophylline (1 mM) were added and incubated for 72 h. Then, the amount of each mRNA was quantified by quantitative reverse transcription PCR.

The next data set relates to TRP-1 mRNA. Briefly: Expression of TRP-1 mRNA (qRT-PCR). The format is cell-based, murine. Particulars: 30 µM, B16 4A5 cells, theophylline 1 mM, 72 h. On the procedure: as §1
For the next data set, the system named is tyrosinase protein. Description: Expression of tyrosinase protein (western blotting). The format is cell-based, murine. Particulars: B16 4A5 cells, theophylline 1 mM, 72 h. On the procedure:
The expression of tyrosinase protein was assessed according to a previously reported method. Briefly, murine B16 melanoma 4A5 cells were seeded into 6-well plates in DMEM. After 24 h of culture, a test compound and theophylline (1 mM) were added and incubated for 72 h. The expression of tyrosinase protein then was measured by western blotting.
(A western blot detects proteins with antibodies after separation by electrophoresis.)

The test system of a further data set is tyrosinase from mushroom. Briefly: Mushroom tyrosinase activity. The format is biochemical. On the procedure: Tyrosinase activities using L-tyrosine or L-DOPA as a substrate were determined according to the protocols described previously. Briefly, samples, L-tyrosine (2.5 mM, or L-DOPA, 3.0 mM), mushroom tyrosinase (46 units/mL), and phosphate buffer were mixed in a 96-well plate and incubated at 25 °C. (L-tyrosine; 30 min, L-DOPA; 5 min). The absorbance was then measured at 492 nm.

In another data set the test system is tyrosinase mRNA. Briefly: Expression of tyrosinase mRNA (qRT-PCR). The format is cell-based, murine. Particulars: 30 µM, B16 4A5 cells, theophylline 1 mM, 72 h. On the procedure:
as §1

Data set [1] in a line: Cell viability of B16 melanoma 4A5 cells. The format is cell-based, murine. Particulars: mouse, B16 4A5 cells. The procedure, abridged: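 After 24 h seeding in DMEM, B16 melanoma 4A5 cells received test compound plus theophylline (1 mM) for 72 h before viability readout. IC50 values read graphically.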
The next data set has as its target T1, mammalian tyrosinase (Mus musculus, UniProt P11344).
T1 construct: the cells were solubilized using 0.1% Triton X-100; endogenous in cells; host or cells: B16 melanoma cells (lysate, after 72 h of 1 mM theophylline)
T1 sequence (P11344 19-533): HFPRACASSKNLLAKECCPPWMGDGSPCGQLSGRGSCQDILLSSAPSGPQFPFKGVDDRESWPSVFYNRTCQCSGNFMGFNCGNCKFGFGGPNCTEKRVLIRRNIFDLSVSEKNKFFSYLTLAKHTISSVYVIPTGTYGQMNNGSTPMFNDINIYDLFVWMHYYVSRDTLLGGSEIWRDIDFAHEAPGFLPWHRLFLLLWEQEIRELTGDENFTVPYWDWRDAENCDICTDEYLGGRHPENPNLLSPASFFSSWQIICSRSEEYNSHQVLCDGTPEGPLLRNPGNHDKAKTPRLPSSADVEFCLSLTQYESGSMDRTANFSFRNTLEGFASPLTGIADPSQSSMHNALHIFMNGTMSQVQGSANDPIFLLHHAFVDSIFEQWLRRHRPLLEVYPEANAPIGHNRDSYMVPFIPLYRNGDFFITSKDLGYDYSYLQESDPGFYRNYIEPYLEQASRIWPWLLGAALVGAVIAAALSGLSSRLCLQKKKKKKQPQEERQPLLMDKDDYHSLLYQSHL
Briefly: Mammalian tyrosinase activity (B16 cell lysate, L-DOPA). Particulars: L-DOPA as substrate. The format is biochemical, murine. On the procedure: Tyrosinase activity using L-DOPA as a substrate was determined according to protocols described previously. Briefly, B16 cells were seeded into 6-well plates in DMEM. After preculture with theophylline (1 mM) for 72 h, the cells were solubilized using 0.1% Triton X-100. Fifty microliters of each lysate and sample was then mixed with 100 µL 2 mM L-DOPA. After the mixtures were incubated for 30 min at 37 °C, the absorbance of each solution at 492 nm was measured.

Data set [2] has as its system tyrosinase activity in B16 melanoma 4A5 cells. Briefly: Tyrosinase activity in cultured B16 cells. Particulars: B16 4A5 cells, L-DOPA as substrate. The format is cell-based, murine. On the procedure: Tyrosinase activity in cultured cells was determined according to protocols described previously with modifications. Briefly, B16 melanoma 4A5 cells (4 × 10^3 cells/100 µL/well) were seeded into 96-well plates in DMEM. After pre-culture with sample and theophylline (1 mM) for 72 h, the cells were solubilized using 0.1% Triton X-100, and then each lysate was mixed with 50 μL 2 mM L-DOPA. After the mixtures were incubated for 1 h at 37 °C, the absorbance of the solution at 492 nm was measured using the microplate reader.

Data set [3] is described as follows: Stability in aqueous solution at elevated temperature (HPLC residual ratio). The format is physicochemical. Particulars: 20 mg/mL at 125 °C in the dark, after 3 h. On the procedure: To determine stability, the samples were stored at 125 °C, and the residual ratio was calculated by measuring the remaining compound by HPLC. HPLC mobile phase conditions were as follows: AsA was described previously, 6 and 20 were 40% methanol containing 0.1% formic acid at flow rate of 0.2 mL/min [52, 53].

The next data set deals with B16 melanoma 4A5 cells. Description: Theophylline-stimulated melanogenesis inhibition (melanin content). The format is cell-based, murine. Particulars: Mus musculus, 72 h. The procedure, abridged: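 Melanin-content inhibition: cells got compound with theophylline (1 mM) after 24 h pre-culture and were incubated 72 h. OD-based melanin inhibition was normalised to cell viability, [(A−B)/A]/(C/100)×100. IC50 values were read graphically.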

With `CCCCCCOC1=C(OCC(O)CO)[C@@H]([C@@H](O)CO)OC1=O` (stereo partly drawn) [compound 6, 3-O-(2,3-dihydroxypropyl)-2-O-hexyl-AsA], the “TRP-2 mRNA/β-actin mRNA” value with TRP-2 mRNA (30 µM) is given as 0.53 ± 0.18; in the data set with TRP-2 mRNA (100 µM) it was 0.70 ± 0.06. For the same compound, the “TRP-1 mRNA/β-actin mRNA” value in the data set on TRP-1 mRNA worked out at 0.48 ± 0.15. Besides, the “expression of tyrosinase protein (in words)” value in the data set on tyrosinase protein was “suppressed tyrosinase protein expression in a concentration-dependent manner”. The “Inhibition (%) of mushroom tyrosinase” value was −1.5 ± 1.5% in the data set on tyrosinase from mushroom (Substrate: L-DOPA, 30 µM); −1.0 ± 0.7% with tyrosinase from mushroom (Substrate: L-DOPA, 100 µM); −1.5 ± 6.7% in the data set on tyrosinase from mushroom (Substrate: L-Tyrosine, 30 µM); 0.9 ± 1.4% in the data set with tyrosinase from mushroom (Substrate: L-Tyrosine, 100 µM). Further, the “Tyrosinase mRNA/β-actin mRNA” value in the data set on tyrosinase mRNA is given as 0.60 ± 0.07. Further, the viability – broadly, a read-out of living cells in per cent, often relative to untreated cells – at 72 h, 3 µM in [1] (3 µM) worked out at 102%. Moreover, the viability at 72 h, 10 µM in [1] (10 µM) worked out at 96.1%. In addition, the viability at 72 h, 30 µM in data set [1] (30 µM) came out at 88.4%. In addition, the viability at 72 h, 100 µM in [1] (100 µM) turned out to be 77.1%. On mammalian tyrosinase, the “activity on mammalian tyrosinase (in words)” value is given as “did not show activity”. For the same compound, the “tyrosinase activity in cultured cells (in words)” value in data set [2] is “decreased tyrosinase activity in cultured cells”. For the same compound, the “Residual ratio in aqueous solution” value in [3] is given as 85%. Further, the inhibition (in general, the relative decrease from the control value, in per cent) at 3 µM in the data set on B16 melanoma 4A5 cells (3 µM, theophylline-stimulated B16 4A5 cells) was -1.8 ± 4.9%. Further, the inhibition at 10 µM in the data set on B16 melanoma 4A5 cells (10 µM, theophylline-stimulated B16 4A5 cells) was 5.6 ± 2%. In the data set on B16 melanoma 4A5 cells (30 µM, theophylline-stimulated B16 4A5 cells), the inhibition at 30 µM was 26.2 ± 6%. Besides, the inhibition at 100 µM with B16 melanoma 4A5 cells (100 µM, theophylline-stimulated B16 4A5 cells) came out at 53.1 ± 3.1%. The IC50 (as a rule, the concentration at which inhibition is half-maximal) in the data set on B16 melanoma 4A5 cells (theophylline (1 mM)-stimulated B16 melanoma 4A5 cells) turned out to be 81.4 µM.
